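Tested at 5 concentrations; 48 h exposure; 96-well plates; endpoints linearly interpolated, else capped at highest concentration. GI50 = concentration required for 50% inhibition of growth.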 Activity calls are given as the source filed them. Cut-off read from the data, not from the text of the source: active = GI50 up to about 1.1 µM and inactive = higher.

Consider one compound from ChEMBL document CHEMBL1201862, “PubChem BioAssay data set” (2004).

Common to all, as to experiment: NCI tumour cell line growth inhibition, 48 h
In assay [1] the test system is SK-MEL-28.
In assay [2] the test system is OVCAR-8.
Assay [3] deals with KM12.
The test system of assay [4] is M14.
Assay [5] concerns HCT-15.
Assay [6] deals with OVCAR-3.
Assay [7] deals with T47D.
The subject of assay [8] is KM-20L2.
Assay [9] concerns HT-29.
Assay [10] deals with SF-539.
The test system of assay [11] is BT-549.
Assay [12] has as its system SF-268.
The subject of assay [13] is SNB-19.
In assay [14] the test system is A549.
Assay [15] concerns Malme-3M.
In assay [16] the test system is UACC-62.
Assay [17] deals with MDA-N.
For assay [18], the system named is SK-MEL-5.
In assay [19] the test system is SF-295.
For assay [20], the system named is NCI-H226.

Regarding `O=NN(CCCl)C(=O)NC1CCC(=O)NC1=O` (stereo not given), the GI50 is 409 µM (inactive) in [1]; 50 µM (inactive) in assay [2]; 212 µM (inactive) in assay [3]; 356 µM (inactive) in assay [4]; 300 µM in [5]; 818 µM (inactive) in assay [6]. Besides, the GI50 in assay [7] was 384 µM (inactive); in [8], 800 µM (inactive); in [9], 807 µM (inactive); in assay [10] it was 50.8 µM (inactive); in [11], 251 µM (inactive); in [12], 38.7 µM (inactive). The GI50 is 112 µM (inactive) in assay [13]; 182 µM (inactive) in [14]; 221 µM (inactive) in assay [15]; 25.5 µM (inactive) in [16]; 224 µM (inactive) in assay [17]; 121 µM (inactive) in assay [18]. Besides, the results for the GI50 in [19] and in assay [20] were 30.3 µM (inactive) and 232 µM (inactive), respectively.
